# Measurements taken from patent US20210338755A1, “AQUEOUS EXTRACT FROM CELLS OF FITZROYA CUPRESSOIDES (ALERCE) WITH ANTI- AGING AND SKIN REGENERATION PROPERTIES” (RUBISCO BIOTECHNOLOGY, priority 2018, published 2021).
# Test system: HaCaT cells
# Assay: Scratch wound experiment with cell division inhibitor mitomycin C
# Assay type: cell-based
# Settings: 48 hours; 20 μmol/L mitomycin C before treatment with 0.125% v/v extract
# From the text: Evaluation of the effect of mitomycin C in wound healing repair. […] 20 μmol/L of Mitomycin C was applied before each treatment.
# The application of mitomycin inhibits division of the HaCaT cells that, together with cell migration, are the two mechanisms involved in wound healing repair.
smiles,measurement,value
CO[C@@]12[C@H](COC(N)=O)C3=C(C(=O)C(C)=C(N)C3=O)N1C[C@@H]1N[C@@H]12 [mitomycin C],effect on wound closure induced by Alerce cell culture extract,significantly inhibited the wound closure
